Active and inactive are the calls of the source. The rule behind the calls is not given here.
What was measured:
[1] = target: T1, Muscarinic acetylcholine receptor M4 (Homo sapiens) (UniProt P08173); experiment: Partial agonist activity at human M4 receptor co-expressed with Galpha16 in CHO cells assessed as calcium mobilization at 3 uM after 60 mins by FLIPR assay; assay type: functional, cell-based
T1 sequence (whole entry): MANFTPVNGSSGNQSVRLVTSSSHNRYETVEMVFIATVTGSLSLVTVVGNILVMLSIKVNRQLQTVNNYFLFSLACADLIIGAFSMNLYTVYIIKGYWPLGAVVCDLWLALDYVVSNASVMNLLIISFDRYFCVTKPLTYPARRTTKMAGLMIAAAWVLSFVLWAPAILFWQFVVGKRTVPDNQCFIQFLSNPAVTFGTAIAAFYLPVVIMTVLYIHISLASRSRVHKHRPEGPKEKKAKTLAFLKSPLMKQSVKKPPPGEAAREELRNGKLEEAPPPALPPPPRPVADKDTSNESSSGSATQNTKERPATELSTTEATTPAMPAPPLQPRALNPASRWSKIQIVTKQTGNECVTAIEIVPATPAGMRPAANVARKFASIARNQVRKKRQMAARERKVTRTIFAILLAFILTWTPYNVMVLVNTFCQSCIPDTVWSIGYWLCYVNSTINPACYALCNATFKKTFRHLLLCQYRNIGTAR

[2] = species on record: Rattus norvegicus; conditions: Sprague-Dawley, 0.1 to 1 mg/kg
[3] = target: T1, Muscarinic acetylcholine receptor M4 (Homo sapiens); experiment: (§1) Partial agonist activity at human M4 receptor co-expressed with Galpha16 in CHO cells assessed as calcium mobilization after 60 mins by FLIPR assay; assay type: functional, cell-based
[4] = target: T2, Muscarinic acetylcholine receptor M4 (Homo sapiens, UniProt P08173); experiment: as §1; assay type: functional, cell-based
T2 sequence (P08173 whole entry): T1 sequence (whole entry)

[5] = target: T3, Muscarinic acetylcholine receptor M2 (Homo sapiens) (UniProt P08172); experiment: Agonist activity at M2 receptor (unknown origin) at 3 uM by calcium mobilization assay; assay type: functional
T3 sequence (whole entry): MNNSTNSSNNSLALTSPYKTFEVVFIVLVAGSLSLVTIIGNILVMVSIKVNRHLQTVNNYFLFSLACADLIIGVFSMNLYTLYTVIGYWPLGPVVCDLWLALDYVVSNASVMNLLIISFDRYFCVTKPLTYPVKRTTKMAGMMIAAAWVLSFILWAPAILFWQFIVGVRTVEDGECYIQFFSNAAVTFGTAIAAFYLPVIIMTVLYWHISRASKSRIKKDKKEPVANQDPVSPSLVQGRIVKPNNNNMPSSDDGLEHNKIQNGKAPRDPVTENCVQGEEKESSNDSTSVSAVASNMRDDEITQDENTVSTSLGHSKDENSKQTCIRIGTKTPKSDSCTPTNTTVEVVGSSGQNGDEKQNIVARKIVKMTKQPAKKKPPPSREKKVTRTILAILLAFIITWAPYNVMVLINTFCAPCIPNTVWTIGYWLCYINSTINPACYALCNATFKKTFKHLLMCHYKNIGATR

[6] = target: T4, Muscarinic acetylcholine receptor M5 (Homo sapiens) (UniProt P08912); experiment: Agonist activity at M5 receptor (unknown origin) at 3 uM by calcium mobilization assay; assay type: functional
T4 sequence (whole entry): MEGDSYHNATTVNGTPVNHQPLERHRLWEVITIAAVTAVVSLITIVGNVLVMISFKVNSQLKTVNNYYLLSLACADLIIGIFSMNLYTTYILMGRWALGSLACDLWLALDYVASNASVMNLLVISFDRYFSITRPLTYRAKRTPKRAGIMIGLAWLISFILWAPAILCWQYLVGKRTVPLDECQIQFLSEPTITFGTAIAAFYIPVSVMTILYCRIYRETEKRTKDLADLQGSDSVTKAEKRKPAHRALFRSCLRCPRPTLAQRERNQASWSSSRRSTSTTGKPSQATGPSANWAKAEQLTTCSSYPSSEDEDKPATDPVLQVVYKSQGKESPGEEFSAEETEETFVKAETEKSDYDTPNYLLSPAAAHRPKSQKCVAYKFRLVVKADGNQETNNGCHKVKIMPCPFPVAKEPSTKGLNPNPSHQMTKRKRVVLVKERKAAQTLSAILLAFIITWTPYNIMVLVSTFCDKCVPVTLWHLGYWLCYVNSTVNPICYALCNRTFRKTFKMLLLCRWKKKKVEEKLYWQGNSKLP

[7] = target: Muscarinic acetylcholine receptor M3 (Homo sapiens) (UniProt P20309); experiment: Agonist activity at M3 receptor (unknown origin) at 3 uM by calcium mobilization assay; assay type: functional
Sequence of Muscarinic acetylcholine receptor M3 (Homo sapiens) (P20309 whole entry, looked up): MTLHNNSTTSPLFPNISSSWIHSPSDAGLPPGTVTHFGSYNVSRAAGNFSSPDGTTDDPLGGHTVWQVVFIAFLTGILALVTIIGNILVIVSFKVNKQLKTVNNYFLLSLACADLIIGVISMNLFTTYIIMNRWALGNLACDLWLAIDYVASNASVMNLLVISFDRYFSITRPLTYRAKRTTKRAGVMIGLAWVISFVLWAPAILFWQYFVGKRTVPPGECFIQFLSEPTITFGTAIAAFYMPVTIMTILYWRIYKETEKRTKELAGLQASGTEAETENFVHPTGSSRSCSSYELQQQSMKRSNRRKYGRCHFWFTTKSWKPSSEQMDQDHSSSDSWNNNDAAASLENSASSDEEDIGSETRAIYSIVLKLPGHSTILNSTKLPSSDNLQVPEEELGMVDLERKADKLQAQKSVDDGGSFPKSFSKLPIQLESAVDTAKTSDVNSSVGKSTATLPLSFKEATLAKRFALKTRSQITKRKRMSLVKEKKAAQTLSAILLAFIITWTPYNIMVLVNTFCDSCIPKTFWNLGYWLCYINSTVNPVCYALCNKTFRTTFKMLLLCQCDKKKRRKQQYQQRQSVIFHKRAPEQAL

[8] = target: T1, Muscarinic acetylcholine receptor M4 (Homo sapiens); experiment: Agonist activity at M4 receptor (unknown origin) at 3 uM by calcium mobilization assay; assay type: functional
[9] = target: T5, Muscarinic acetylcholine receptor M1 (Homo sapiens) (UniProt P11229); experiment: Agonist activity at M1 receptor (unknown origin) at 3 uM by calcium mobilization assay; assay type: functional
T5 sequence (whole entry): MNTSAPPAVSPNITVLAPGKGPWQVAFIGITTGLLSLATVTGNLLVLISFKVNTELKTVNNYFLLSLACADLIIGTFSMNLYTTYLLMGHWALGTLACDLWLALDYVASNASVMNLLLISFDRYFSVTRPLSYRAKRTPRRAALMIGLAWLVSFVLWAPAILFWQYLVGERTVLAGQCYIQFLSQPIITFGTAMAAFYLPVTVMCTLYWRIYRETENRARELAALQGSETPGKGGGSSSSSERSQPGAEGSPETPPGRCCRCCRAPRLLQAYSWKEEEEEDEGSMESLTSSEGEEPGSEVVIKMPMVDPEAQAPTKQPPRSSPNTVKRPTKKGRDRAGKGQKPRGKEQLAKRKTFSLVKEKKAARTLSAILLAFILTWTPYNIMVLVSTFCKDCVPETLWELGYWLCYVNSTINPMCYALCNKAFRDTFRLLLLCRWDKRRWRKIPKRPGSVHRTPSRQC

[10] = target: T4, Muscarinic acetylcholine receptor M5 (Homo sapiens); experiment: Partial agonist activity at human M5 receptor in CHO cells assessed as calcium mobilization at 3 uM after 60 mins by FLIPR assay; assay type: functional, cell-based
[11] = target: Muscarinic acetylcholine receptor M3 (Homo sapiens) (UniProt P20309); experiment: Partial agonist activity at human M3 receptor in CHO cells assessed as calcium mobilization at 3 uM after 60 mins by FLIPR assay; assay type: functional, cell-based
[12] = target: Voltage-gated inwardly rectifying potassium channel KCNH2 (Homo sapiens, UniProt Q12809); experiment: Inhibition of human ERG assessed as decrease in tail current amplitude measured after 5 mins by whole cell patch clamp technique
Sequence of Voltage-gated inwardly rectifying potassium channel KCNH2 (Q12809 whole entry): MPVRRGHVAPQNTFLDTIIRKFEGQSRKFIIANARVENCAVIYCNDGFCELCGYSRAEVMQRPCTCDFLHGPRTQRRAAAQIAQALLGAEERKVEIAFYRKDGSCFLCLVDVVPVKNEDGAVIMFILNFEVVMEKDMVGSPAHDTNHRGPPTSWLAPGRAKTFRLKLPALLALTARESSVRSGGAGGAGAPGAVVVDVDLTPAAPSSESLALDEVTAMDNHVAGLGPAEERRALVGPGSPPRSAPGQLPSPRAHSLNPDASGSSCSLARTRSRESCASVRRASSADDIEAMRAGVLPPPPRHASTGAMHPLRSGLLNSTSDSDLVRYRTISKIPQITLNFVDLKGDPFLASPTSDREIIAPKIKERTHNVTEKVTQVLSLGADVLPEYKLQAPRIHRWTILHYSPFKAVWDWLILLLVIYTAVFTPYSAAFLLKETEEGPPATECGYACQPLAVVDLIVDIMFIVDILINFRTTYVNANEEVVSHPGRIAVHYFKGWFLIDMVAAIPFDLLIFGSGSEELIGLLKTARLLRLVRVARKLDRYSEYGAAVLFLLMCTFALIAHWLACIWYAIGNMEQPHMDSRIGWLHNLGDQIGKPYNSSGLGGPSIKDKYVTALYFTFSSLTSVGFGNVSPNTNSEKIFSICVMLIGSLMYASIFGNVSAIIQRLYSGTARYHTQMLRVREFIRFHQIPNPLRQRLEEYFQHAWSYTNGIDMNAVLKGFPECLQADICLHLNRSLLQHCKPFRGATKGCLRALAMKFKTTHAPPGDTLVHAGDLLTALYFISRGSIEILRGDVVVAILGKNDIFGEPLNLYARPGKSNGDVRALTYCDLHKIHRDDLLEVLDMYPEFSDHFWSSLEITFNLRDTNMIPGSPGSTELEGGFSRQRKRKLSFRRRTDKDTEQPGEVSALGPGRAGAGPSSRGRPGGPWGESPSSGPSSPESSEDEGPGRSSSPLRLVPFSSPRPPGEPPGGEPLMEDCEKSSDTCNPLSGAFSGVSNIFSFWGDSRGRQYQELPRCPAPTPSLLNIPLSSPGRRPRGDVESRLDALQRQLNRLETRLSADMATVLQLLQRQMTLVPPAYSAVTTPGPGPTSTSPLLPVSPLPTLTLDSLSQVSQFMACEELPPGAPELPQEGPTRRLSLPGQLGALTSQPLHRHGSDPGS

[13] = target: T3, Muscarinic acetylcholine receptor M2 (Homo sapiens); experiment: Partial agonist activity at human M2 receptor co-expressed with Galpha16 in CHO cells assessed as calcium mobilization at 3 uM after 60 mins by FLIPR assay; assay type: functional, cell-based
[14] = target: T5, Muscarinic acetylcholine receptor M1 (Homo sapiens); experiment: Partial agonist activity at human M1 receptor in CHO cells assessed as calcium mobilization at 3 uM after 60 mins by FLIPR assay; assay type: functional, cell-based
[15] = target: T1, Muscarinic acetylcholine receptor M4 (Homo sapiens); experiment: Agonist activity at M4 receptor (unknown origin) at 10 uM by calcium mobilization assay; assay type: functional
[16] = tested on: Cynomolgus monkey; experiment: Induction of salivation in sc dosed cynomolgus monkey; assay type: organism-based, Macaca fascicularis; conditions: in vivo
[17] = tested on: Cynomolgus monkey; experiment: Cardiotoxicity in telemetered cynomolgus monkey assessed as prolongation of QTc interval at 1 to 3 mg/kg, sc measured after 1 to 4 hrs by telemetry method; assay type: toxicity, organism-based, Macaca fascicularis; parameters: route subcutaneous; conditions: in vivo
[18] = tested on: Cynomolgus monkey; experiment: Cardiotoxicity in telemetered cynomolgus monkey assessed as increase in heart rate at 1 to 3 mg/kg, sc measured after 1 to 4 hrs by telemetry method; assay type: toxicity, organism-based, Macaca fascicularis; parameters: route subcutaneous; conditions: in vivo
[19] = tested on: Mus musculus; experiment: Induction of salivation in ddY mouse at 10 to 30 mg/kg, sc measured for 30 mins after drug administration; assay type: organism-based; parameters: dose 10-30 mg/kg, route subcutaneous; conditions: in vivo, 0.5 h
[20] = tested on: Cynomolgus monkey; experiment: Induction of vomiting in sc dosed cynomolgus monkey; assay type: organism-based, Macaca fascicularis; conditions: in vivo
[21] = tested on: Cynomolgus monkey; experiment: Cardiotoxicity in telemetered cynomolgus monkey assessed as prolongation of QRS duration at 1 to 3 mg/kg, sc measured after 1 to 4 hrs by telemetry method; assay type: toxicity, organism-based, Macaca fascicularis; parameters: route subcutaneous; conditions: in vivo
[22] = tested on: Cynomolgus monkey; experiment: Induction of drowsiness in sc dosed cynomolgus monkey; assay type: organism-based, Macaca fascicularis; conditions: in vivo
[23] = tested on: Cynomolgus monkey; experiment: Induction of miosis in sc dosed cynomolgus monkey; assay type: organism-based, Macaca fascicularis; conditions: in vivo
[24] = tested on: Rattus norvegicus; experiment: Potentiation of haloperidol-induced catalepsy in Sprague-Dawley rats at 30 mg/kg, sc administered 15 mins after haloperidol injection measured after 45 mins; assay type: ADME, organism-based; parameters: dose 30 mg/kg, route subcutaneous; conditions: in vivo, 0.75 h
[25] = tested on: Cynomolgus monkey; experiment: Cardiotoxicity in telemetered cynomolgus monkey assessed as increase in mean blood pressure at 1 to 3 mg/kg, sc measured after 1 to 4 hrs by telemetry method; assay type: toxicity, organism-based, Macaca fascicularis; parameters: route subcutaneous; conditions: in vivo
[26] = tested on: Mus musculus; experiment: Induction of seizures in ddY mouse at 300 mg/kg, sc measured for 45 mins after drug injection; assay type: organism-based; parameters: dose 300 mg/kg, route subcutaneous; conditions: in vivo, 0.75 h
[27] = target: T1, Muscarinic acetylcholine receptor M4 (Homo sapiens); experiment: Partial agonist activity at human M4 receptor co-expressed with Galpha16 in CHO cells assessed as calcium mobilization at 30 nM after 60 mins by FLIPR assay; assay type: functional, cell-based

Q: With `CCOC(=O)N1CCC(CN2CC[C@H](N3C(=O)Cc4ccccc43)C2)(OC)CC1` as the compound, how does the Intrinsic activity [1] read?
A: Its Intrinsic activity is 13%.

Q: With `CO/N=C(\C#N)[C@H]1CN2CCC1CC2` [SABCOMELINE] as the compound, how does the inhibition [2] read?
A: Its inhibition is “Active”.

Q: What about the Intrinsic activity [3] of the same compound?
A: The Intrinsic activity was 28%.

Q: And the EC50 [4]?
A: The EC50 was 5.7 nM.

Q: How did the Activity [5] turn out when `CCOC(=O)N1CCC(CN2CCC(N3C(=O)Cc4ccccc43)CC2)CC1` was run?
A: The Activity was 6%.

Q: What about the Activity [6] of the same compound?
A: The Activity was 6%.

Q: What about the Activity [7] of the same compound?
A: The Activity was 2%.

Q: What about the Activity [8] of the same compound?
A: The Activity was 33%.

Q: What about the Activity [9] of the same compound?
A: Its Activity is 88%.

Q: What does the source list for `CCOC(=O)N1CCC(CN2CC[C@@H](N3C(=O)Cc4ccccc43)C2)CC1`?
A: Activity [5]: 27%; Activity [6]: 4%; Activity [7]: 8%; Activity [8]: 86%; Activity [9]: 88%

Q: What does the source list for `CCOC(=O)N1CCC(C)(CN2CC[C@H](N3C(=O)Cc4ccccc43)C2)CC1`?
A: Activity [10]: 4%; Activity [11]: 2%; IC50 [12]: 3.5 µM; Activity [13]: 3%; Activity [14]: 49%; Intrinsic activity [3]: 65%; EC50 [4]: 15 nM

Q: How did the Activity [15] turn out when `CC(C)=CCN1CCC(N2C(=O)C(C)(C)c3ccccc32)CC1` was run?
A: Its Activity is 33%.

Q: And the Activity [8]?
A: Its Activity is 14%.

Q: `CCOC(=O)N1CCC(CN2CCCC(N3C(=O)Cc4ccccc43)CC2)CC1` (stereo unspecified) was tested. Which Activity [5] did it give?
A: Its Activity is 4%.

Q: What about the Activity [6] of the same compound?
A: The Activity was 3%.

Q: And the Activity [7]?
A: Its Activity is 2%.

Q: And the Activity [8]?
A: Its Activity is 4%.

Q: And the Activity [9]?
A: Its Activity is 7%.

Q: Which results are given for `CCCCCCOc1nsnc1C1=CCCN(C)C1.O=C(O)C(O)C(O)C(=O)O` [XANOMELINE TARTRATE]?
A: Activity [16]: Toxic; Activity [5]: 34%; Activity [17]: Toxic; Activity [18]: Toxic; Activity [19]: Toxic; Activity [20]: Toxic; Activity [6]: 33%; Activity [7]: 85%; Activity [21]: Toxic; Activity [22]: Toxic; Activity [8]: 83%; Activity [9]: 145%; Activity [23]: Toxic; Activity [24]: Toxic; Activity [25]: Toxic

Q: Which Activity [26] does the source give for `CC[C@@H]1C(=O)OC[C@@H]1Cc1cncn1C` [PILOCARPINE] here?
A: Its Activity is “Toxic”.

Q: How did the Activity [5] turn out when `CCOC(=O)N1CCC(CN2CC(N3C(=O)Cc4ccccc43)C2)CC1` was run?
A: The Activity was 2%.

Q: And the Activity [6]?
A: The Activity was 3%.

Q: And the Activity [7]?
A: The Activity was 3%.

Q: And the Activity [8]?
A: The Activity was 46%.

Q: And the Activity [9]?
A: Its Activity is 65%.

Q: `CCOC(=O)N1CCC(O)(CN2CC[C@H](N3C(=O)Cc4ccccc43)C2)CC1` was tested. Which Activity [10] did it give?
A: Its Activity is 3%.

Q: What about the Activity [11] of the same compound?
A: The Activity was 31%.

Q: What about the IC50 [12] of the same compound?
A: The IC50 was 3.9 µM.

Q: And the Activity [13]?
A: The Activity was 12%.

Q: And the Activity [14]?
A: The Activity was 57%.

Q: What about the Intrinsic activity [3] of the same compound?
A: The Intrinsic activity was 45%.

Q: And the EC50 [4]?
A: Its EC50 is 320 nM.

Q: With `CCOC(=O)N1CCC(CN2CC[C@H](N3C(=O)Cc4ccccc43)C2)CC1` as the compound, how does the Activity [10] read?
A: Its Activity is 5%.

Q: And the Intrinsic activity [27]?
A: The Intrinsic activity was 79%.

Q: And the Activity [11]?
A: Its Activity is 7%.

Q: And the Activity [13]?
A: The Activity was 30%.

Q: And the Activity [5]?
A: The Activity was 30%.

Q: And the Activity [6]?
A: The Activity was 5%.

Q: And the Activity [14]?
A: The Activity was 83%.

Q: And the Activity [7]?
A: The Activity was 7%.

Q: And the Activity [8]?
A: Its Activity is 124%.

Q: What about the Activity [9] of the same compound?
A: Its Activity is 83%.
